Experimental data: patent publication US11279733B2, “Peptide antibiotics” (priority 2017, dated 2022)
Values after ≈ are worked out from the molar mass of the structure shown. Read-outs that look alike come from different tables or passages of the source. Starred links: 1 amine or outer side, 2 acyl side, 3 side chain; linkers in the order of their positions; H or OH if unused. Positions of bridges follow the written chain, without caps; N, C: chain ends. Non-standard residues stand in square brackets, D forms with d. Residues, ends and D or L forms follow the SMILES beside them. *: point of attachment. Decanoyl(3R-OH) = CCCCCCC[C@@H](O)CC(=O)*; Igl = N[C@H](C(=O)O)C1Cc2ccccc2C1; azaDab = NCCN(N[*:1])C(=O)[*:2]; X1 = CCCCCCCN1CCC(C(=O)*)CC1; dDab = NCC[C@@H](N)C(=O)O; Dab = NCC[C@H](N)C(=O)O

Key:
K. pneumoniae ATCC 13883 = details: ATCC 13883
In short: (§1)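 Mid-log cultures grown in Mueller Hinton broth at 37° C were tested by 2-fold broth microdilution at 5×10^5 CFU/mL final. Compounds were dissolved in water and tested over a final range of 32 to 0.015 μg/mL.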

[1] = test system: K. pneumoniae GN_106, PmxR; details: GN 106, PmxR
In short: as §1

[2] = test system: P. aeruginosa GN_105, PmxR; details: GN 105, PmxR
In short: as §1

E. coli ATCC 25922 = details: ATCC 25922
In short: as §1

[3] = test system: P. aeruginosa GN_043, PmxR; details: for MIC, P. aeruginosa FADDI-PA070, PmxR: strain name as in Table 11
In short: as §1

P. aeruginosa ATCC 27853 = details: ATCC 27853
In short: as §1

[4] = test system: S. aureus ATCC 25923, MSSA; details: ATCC 25923
In short: as §1

[5] = test system: K. pneumoniae ATCC BAA-2146, NDM-1 pos; details: ATCC BAA-2146
In short: as §1

[6] = test system: K. pneumoniae ATCC 700603, MDR; details: ATCC 700603
In short: as §1

A. baumannii ATCC 19606 = details: ATCC 19606
In short: as §1

A. baumannii GN_093 PmxR = details: GN 093 PmxR
In short: as §1

[7] = test system: K. pneumoniae GN_102 PmxR; details: GN 102 PmxR
In short: as §1

in vitro [8] = details: human
In short: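 Viability is measured by resazurin reduction (5 μM, 2 h, 37 °C) after cells seeded at 4000 per well are treated with compound for 24 h.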

in vitro [9] = details: human; remark: listed apart in the source
Protocol: Cytotoxicity of the synthesised peptides was evaluated by comparison with commercially available colistin (polymyxin E), polymyxin B (Sigma chemical Co., St. Louis, Mo., U.S.A.) and synthetic octapeptin C4 by conducting lactate dehydrogenase (LDH) assay. CC50 values calculated based on curve fitting of dose dependent inhibition of cell growth represented the cytotoxicity of the peptide. Human kidney 2 (HK2) cells were seeded as 2000 cells per well in a 384 well cell culture plate in a final volume of 20 μL in DMEM/F12 medium (Invitrogen #11330057), in which 10% of FBS was added. Cells were incubated for 24 hours at 37° C., 5% CO2 to allow cells to attach to the plates. Similar conditions were employed for HEK293 and HepG2 cytotoxicity assays.
Cytotoxicity to HEK293 and HepG2 cells was determined using the resazurin assay (McMillian, M. K.; Li, L.; Parker, J. B.; Patel, L.; Zhong, Z.; Gunnett, J. W.; Powers, W. J.; Johnson, M. D. An improved resazurin-based cytotoxicity assay for hepatic cells; Cell Biol. Toxicol. 2002, 18, 157-173; O'Brien, J.; Wilson, I.; Orton, T.; Pognan, F. Investigation of the Alamar Blue (resazurin) fluorescent dye for the assessment of mammalian cell cytotoxicity. Eur. J. Biochem. 2000, 267, 5421-5426). In brief, HEK293 and HepG2 cells were seeded at 4000 cells/well in black-wall, clear-bottom 384-well plates (Corning, Australia) and incubated for 24 h at 37° C., 5% CO2. Compounds were then added into each well. After 24 h incubation, 5 μM resazurin was added per well and incubated at 37° C. for 2 h. Fluorescence intensity was then read using a Polarstar Omega with excitation/emission 560/590. The data was then analyzed using GraphPad Prism 6 software. CC50 values were determined using GraphPad Prism 6 software (Inc. La Jolla, Calif.).

in vitro [10] = details: human; remark: listed apart in the source
In short: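 HK2 cells were seeded at 2000 per well in DMEM/F12 with 10% FBS and left to attach for 24 h at 37 °C, 5% CO2. They were then exposed for 24 h to 3-fold peptide dilutions starting from 600 μM solutions in quadruplicate. LDH release was read at 450 nm, and CC50 was fitted from dose-response curves.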

Neisseria gonorrhoeae = test: MIC determination, Neisseria gonorrhoeae; format: cell-based; details: strain FA19 ATCC BAA-1838
Protocol: Bacteria were either obtained from American Type Culture Collection (ATCC; Manassas, Va., USA) or independent academic clinical isolate collections, as listed in Table 18 below. Bacteria were cultured in Nutrient broth (NB; Bacto Laboratories, catalogue No. 234000) or Mueller Hinton broth (MHB; Bacto Laboratories, catalogue No. 211443) at 37° C. overnight with shaking (˜180 RPM). A sample of each culture was then diluted 50-fold in fresh MHB and incubated at 37° C. for 2-3 h with shaking (˜180 RPM). Compound stock solutions were prepared as 0.64 mg/mL or 2.56 mg/mL in water. The compounds, at twice the final desired concentration, were serially diluted 2-fold across the wells of 96-well plates (Polystyrene, Corning, catalogue No. 3370). Mid-log phase bacterial cultures (after 2-3 h incubation) were diluted to a final concentration of 1×10^6 colony forming units (CFU)/mL, and 50 μL was added to each well giving a final cell density of 5×10^5 and a compound concentration range of 32 μg/mL to 0.015 μg/mL (128-0.06 μg/mL against P. aeruginosa PA9704).

| SMILES | MIC K. pneumoniae ATCC 13883 (K. pneumoniae ATCC 13883) | MIC K. pneumoniae Cl 183-16357-20352, PmxR [1] | MIC P. aeruginosa PA9704, PmxR [2] | MIC E. coli ATCC 25922 (E. coli ATCC 25922) | MIC, P. aeruginosa FADDI-PA070, PmxR [3] | MIC P. aeruginosa ATCC 27853 (P. aeruginosa ATCC 27853) | MIC S. aureus ATCC 25923, MSSA [4] | MIC K. pneumoniae ATCC BAA-2146, NDM-1 pos [5] | MIC K. pneumoniae ATCC 700603, MDR [6] | MIC A. baumannii ATCC 19606 (A. baumannii ATCC 19606) | MIC A. baumannii Cl Ptyela 10073 4512:2, PmxR (A. baumannii GN_093 PmxR) | MIC K. pneumoniae Cl Koprana 10065 0661:1 PmxR [7] | CC50 at 24 h (in vitro [8]) | CC50 at 24 h (in vitro [9]) | CC50 at 24 h (in vitro [10]) | MIC K. pneumoniae GN_106, PmxR [1] | MIC P. aeruginosa GN_105, PmxR [2] | MIC P. aeruginosa GN_043, PmxR ([3]; polymyxin-resistant) | MIC A. baumannii GN_093 PmxR (A. baumannii GN_093 PmxR) | MIC K. pneumoniae GN_102 PmxR [7] | further results |
| --- | --- | --- | --- | --- | --- | --- | --- | --- | --- | --- | --- | --- | --- | --- | --- | --- | --- | --- | --- | --- | --- |
| CCCCCCC[C@@H](O)CC(=O)N[C@H](CCN)C(=O)N[C@H]1CCNC(=O)[C@H](CC(C)C)NC(=O)N(CCN)NC(=O)[C@H](CCN)NC(=O)[C@H](CC(C)C)NC(=O)[C@@H](Cc2ccccc2)NC(=O)[C@H](CCN)NC1=O [compound 8782, 3(R)OH-nC9CO-D-Dab-cyc[L-Dab-L-DAB-D-Phe-L-Leu-L-Dab-azaDab-L-Leu]] ({Decanoyl(3R-OH)}-[dDab][Dab][Dab][dF]L[Dab][azaDab]L; lactam 2-C) | 32 µg/mL (≈ 30.6 µM) | >32 µg/mL | 32 µg/mL (≈ 30.6 µM) | 16 µg/mL (≈ 15.3 µM) | 8 µg/mL (≈ 7.65 µM) | 2 µg/mL (≈ 1.91 µM) | 16 µg/mL (≈ 15.3 µM) | >32 µg/mL | 32 µg/mL (≈ 30.6 µM) | >32 µg/mL | >32 µg/mL | >32 µg/mL | > 300 µM | > 300 µM | – | – | – | – | – | – | – |
| CCCCCCC[C@@H](O)CC(=O)N[C@H](CCN)C(=O)N[C@H]1CCNC(=O)[C@H](CC(C)C)NC(=O)[C@H](CCNC(=O)[C@@H](N)CCCNC(=N)N)NC(=O)[C@H](CCN)NC(=O)[C@H](CC(C)C)NC(=O)[C@@H](Cc2ccccc2)NC(=O)[C@H](CCN)NC1=O [compound 6653, 3(R)OH-nC9CO-D-Dab-cyc[L-Dab-L-Dab-D-Phe-L-Leu-L-Dab-L-Dab(L-Arg)-L-Leu]] ({Decanoyl(3R-OH)}-[dDab][Dab][Dab][dF]L[Dab][Dab](Arg)L; lactam 2-C) | 8 µg/mL (≈ 6.66 µM) | – | – | 16 µg/mL (≈ 13.3 µM) | – | 4 µg/mL (≈ 3.33 µM) | 32 µg/mL (≈ 26.7 µM) | 8 µg/mL (≈ 6.66 µM) | 8 µg/mL (≈ 6.66 µM) | 4 µg/mL (≈ 3.33 µM) | – | – | > 300 µM | > 300 µM | 64 µM | 16 µg/mL (≈ 13.3 µM) | 4 µg/mL (≈ 3.33 µM) | 2 µg/mL (≈ 1.67 µM) | 16 µg/mL (≈ 13.3 µM) | >32 µg/mL | – |
| CCCCCCC[C@@H](O)CC(=O)N[C@H](CCN)C(=O)N[C@H]1CCNC(=O)[C@H](CC(C)C)NC(=O)[C@H](CCN)NC(=O)[C@H](CCN)NC(=O)[C@@H](CC(C)C)NC(=O)[C@H](Cc2ccccc2)NC(=O)[C@H](CCN)NC1=O [compound 8640, 3(R)OH-nC9CO-D-Dab-cyc[L-Dab-L-DAB-L-Phe-D-Leu-L-Dab-L-Dab-L-Leu]] ({Decanoyl(3R-OH)}-[dDab][Dab][Dab]F[dL][Dab][Dab]L; lactam 2-C) | >32 µg/mL | – | – | 16 µg/mL (≈ 15.3 µM) | – | 8 µg/mL (≈ 7.66 µM) | 32 µg/mL (≈ 30.6 µM) | >32 µg/mL | 32 µg/mL (≈ 30.6 µM) | >32 µg/mL | – | – | > 300 µM | ≥ 300 µM | – | >32 µg/mL | >32 µg/mL | – | >32 µg/mL | >32 µg/mL | MIC P. aeruginosa GN_043, PmxR ([3]; P. aeruginosa GN_043, PmxR): >32 µg/mL |
| CCCCCCCN1CCC(C(=O)N[C@H](CCN)C(=O)N[C@H]2CCNC(=O)[C@H](CC(C)C)NC(=O)[C@H](CCN)NC(=O)[C@H](CCN)NC(=O)[C@H](Cc3ccccc3)NC(=O)[C@@H](CC(C)C)NC(=O)[C@H](CCN)NC2=O)CC1 [compound 6516, 1-heptylpiperidine-4-carboxylic acid-D-Dab-cyc[L-Dab-L-Dab-D-Leu-L-Phe-L-Dab-L-Dab-L-Leu]] (X1-[dDab][Dab][Dab][dL]F[Dab][Dab]L; lactam 2-C) | >32 µg/mL | – | – | 16 µg/mL (≈ 14.8 µM) | – | 1 µg/mL (≈ 0.923 µM) | 32 µg/mL (≈ 29.5 µM) | 32 µg/mL (≈ 29.5 µM) | >32 µg/mL | >32 µg/mL | – | – | > 300 µM | > 300 µM | 223 µM | – | 2 µg/mL (≈ 1.85 µM) | – | – | – | MIC P. aeruginosa GN_043, PmxR ([3]; P. aeruginosa GN_043, PmxR): 0.5 µg/mL (≈ 0.461 µM) |
| CCCCCCC[C@@H](O)CC(=O)N[C@H](CCN)C(=O)N[C@H]1CCNC(=O)[C@H](CC(C)C)NC(=O)[C@H](CCN)NC(=O)[C@H](CCN)NC(=O)[C@H](CC(C)C)NC(=O)[C@@H](Cc2ccccc2)NC(=O)N(CCN)NC1=O [compound 8636, 3(R)OH-nC9CO-D-Dab-cyc[L-Dab-azaDAB-D-Phe-L-Leu-L-Dab-L-Dab-L-Leu]] ({Decanoyl(3R-OH)}-[dDab][Dab][azaDab][dF]L[Dab][Dab]L; lactam 2-C) | >32 µg/mL | >32 µg/mL | >32 µg/mL | 16 µg/mL (≈ 15.3 µM) | >32 µg/mL | 4 µg/mL (≈ 3.83 µM) | 32 µg/mL (≈ 30.6 µM) | >32 µg/mL | 16 µg/mL (≈ 15.3 µM) | >32 µg/mL | >32 µg/mL | >32 µg/mL | > 300 µM | > 300 µM | – | – | – | – | – | – | – |
| CCCCCCC[C@@H](O)CC(=O)N[C@H](CCN)C(=O)N[C@H]1CCNC(=O)[C@H](C2Cc3ccccc3C2)NC(=O)[C@H](CCN)NC(=O)[C@H](CCN)NC(=O)[C@H](CC(C)C)NC(=O)[C@@H](Cc2ccccc2)NC(=O)[C@H](CCN)NC1=O [compound 8912, 3(R)OH-nC9CO-D-Dab-cyc[L-Dab-L-Dab-D-Phe-L-Leu-L-Dab-L-Dab-L-indanylgly]] ({Decanoyl(3R-OH)}-[dDab][Dab][Dab][dF]L[Dab][Dab][Igl]; lactam 2-C) | 2 µg/mL (≈ 1.81 µM) | – | – | 2 µg/mL (≈ 1.81 µM) | – | 2 µg/mL (≈ 1.81 µM) | 2 µg/mL (≈ 1.81 µM) | 4 µg/mL (≈ 3.62 µM) | 4 µg/mL (≈ 3.62 µM) | 4 µg/mL (≈ 3.62 µM) | – | – | 28 µM | – | – | 2 µg/mL (≈ 1.81 µM) | 2 µg/mL (≈ 1.81 µM) | 2 µg/mL (≈ 1.81 µM) | 4 µg/mL (≈ 3.62 µM) | 2 µg/mL (≈ 1.81 µM) | MIC N. gonorrhoeae FA19 ATCC BAA-1838 (Neisseria gonorrhoeae): 0.78 µg/mL (≈ 0.706 µM) |
